Where two headings read alike, the source gives them in different places.
How the values were obtained:
cercariae = conditions: in tissue culture / in vitro, cited from earlier work
[1] = Disposition of 14C-DEET and 14C-Lipodeet after skin application (skin, blood, urine, bedding radioactivity)
Protocol: In this series of experiments, 11.472 mg of ^14C-DEET of ^14C-Lipodeet (in 100 μl) was applied to 5 cm^2 area of the mice abdominal skin. At different time points (15 min, 30 min, 60 min, 2 hrs., 4 hrs., 24 hrs., 48 hrs. and 72 hrs.) after application, the whole area of skin where the lipodeet had been applied was collected, underlying tissue removed and the radioactivity measured in a Beckman β-counter. Samples of blood and urine were also collected at these time points from each mouse to measure the radioactivity (n=10 for each time point). […] In this study, we made observations only up to 72 hrs. […] There are two possibilities, (1) substantial quantities of both DEET and Lipodeet are absorbed systemically through the skin within 24 hrs., or (2) both the chemicals are lost in the bedding due to direct contact of the applied area to the bedding materials. The first hypothesis was tested by measuring ^14C levels in the blood and urine in these animals.

SMILES | cercaricidal effect (cercariae) | also measured
C[C@@H]1CC[C@H]2C(C)(C)[C@H]3C[C@@]12CC[C@@]3(C)O [Cederol] | significant cercaricidal effect | 
CCCCCCCCCCCC(=O)N(CC)CC [N,N-diethyl lauramide] | significant cercaricidal effect | 
O=C(Nc1ccc([N+](=O)[O-])cc1Cl)c1cc(Cl)ccc1O [Niclosamide] | significant cercaricidal effect | 
CCN(CC)C(=O)c1cccc(C)c1 [^14C-DEET] |  | urine radioactivity ([1]; 15 minutes after application): > 5.7×10^7 cpm/ml; radio label in the blood ([1]; within 15 minutes after application): Significant quantity of the radio label was present in the blood
O=C(OCc1ccccc1)c1ccccc1 [benzyl benzoate] | significant cercaricidal effect | 
CCCCOC(=O)c1ccccc1C(=O)OCCCC [dibutyl phthalate] | significant cercaricidal effect | 
Oc1c(Cl)cc(Cl)c(Cl)c1Cc1c(O)c(Cl)cc(Cl)c1Cl [hexachlorophene] | significant cercaricidal effects | cercaricidal effect (cercariae; listed as hexachlorophere): significant cercaricidal effect

Reference: US6447801B1, “Anti-parasitic action of N,N-diethyl-m-toluamide (deet) and formulations that prolong its activity in the skin” (priority 1997, dated 2002)
